The source of these data is patent publication US7462647B2, “Pentalfluoroalkanesulfinyl naphthalenes and related estrogen receptor modulators” (Eli Lilly and Company, priority 2003, dated 2008).

SMILES strings stand for the structures.

The target of one assay is T1, ERAlpha receptor (Homo sapiens, UniProt P03372).
T1 construct: purchased PanVera
T1 sequence (P03372 1-595): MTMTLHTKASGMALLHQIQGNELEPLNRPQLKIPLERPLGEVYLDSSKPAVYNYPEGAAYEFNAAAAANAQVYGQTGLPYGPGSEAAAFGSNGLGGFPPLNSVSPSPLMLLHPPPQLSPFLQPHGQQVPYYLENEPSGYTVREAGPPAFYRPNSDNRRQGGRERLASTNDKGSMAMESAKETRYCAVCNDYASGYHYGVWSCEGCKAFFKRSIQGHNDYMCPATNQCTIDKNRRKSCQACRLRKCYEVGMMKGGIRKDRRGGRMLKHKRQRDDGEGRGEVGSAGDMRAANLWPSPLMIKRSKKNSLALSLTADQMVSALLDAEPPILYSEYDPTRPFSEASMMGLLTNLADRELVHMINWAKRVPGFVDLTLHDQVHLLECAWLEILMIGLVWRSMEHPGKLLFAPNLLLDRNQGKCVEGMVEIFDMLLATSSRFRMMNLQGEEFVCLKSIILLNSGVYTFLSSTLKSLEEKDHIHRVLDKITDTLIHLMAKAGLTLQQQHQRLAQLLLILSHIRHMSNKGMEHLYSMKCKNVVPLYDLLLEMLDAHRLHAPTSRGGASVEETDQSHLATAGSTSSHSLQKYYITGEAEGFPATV
Put plainly: Competition binding assay, 3H-Estradiol, ER alpha. Conditions: IC50 converted to Ki using Cheng-Prusoff equation. How it is done: (§1) Competition binding assay is run in a buffer containing 50 mM Hepes, pH 7.5, 1.5 mM EDTA, 150 mM NaCl, 10% glycerol, 1 mg/ml ovalbumin and 5 mM DTT, using 0.025 μCi per well ^3H-Estradiol(NEN #NET517 at […], 1 mCi/ml), 10 ng/well ERAlpha or ERbeta receptor (PanVera). Competing compounds are added at 10 different concentrations. Non-specific binding is determined in the presence of 1 μM of 17-B Estradiol. The binding reaction (140 μl) is incubated for 4 hours at room temperature, then 70 μl of cold DCC buffer is added to each reaction (DCC buffer contains per 50 ml of assay buffer, 0.75 g of charcoal (Sigma) and 0.25 g of dextran (Pharmacia)). Plates are mixed 8 minutes on an orbital shaker at 4° C. Plates are then centrifuged at 3,000 rpm at 4° C. for 10 minutes. An aliquot of 120 μl of the mix is transferred to another 96-well, white flat bottom plate (Costar) and 175 μl of Wallac Optiphase “Hisafe 3” scintillation fluid is added to each well. Plates are sealed and shaken vigorously on an orbital shaker. After an incubation of 2.5 hrs, read plates in a Wallac Microbeta counter. The data is used to calculate an IC50 and % Inhibition at 10 μM. The Kd for ^3H-Estradiol is determined by saturation binding to ER alpha and ER beta receptors. The IC50 values for compounds are converted to K; using Cheng-Prusoff equation and the Kd determined by saturation binding assay.

The target in a further assay is T2, ERbeta receptor (Homo sapiens, UniProt Q92731).
T2 construct: purchased PanVera
T2 sequence (Q92731 whole entry): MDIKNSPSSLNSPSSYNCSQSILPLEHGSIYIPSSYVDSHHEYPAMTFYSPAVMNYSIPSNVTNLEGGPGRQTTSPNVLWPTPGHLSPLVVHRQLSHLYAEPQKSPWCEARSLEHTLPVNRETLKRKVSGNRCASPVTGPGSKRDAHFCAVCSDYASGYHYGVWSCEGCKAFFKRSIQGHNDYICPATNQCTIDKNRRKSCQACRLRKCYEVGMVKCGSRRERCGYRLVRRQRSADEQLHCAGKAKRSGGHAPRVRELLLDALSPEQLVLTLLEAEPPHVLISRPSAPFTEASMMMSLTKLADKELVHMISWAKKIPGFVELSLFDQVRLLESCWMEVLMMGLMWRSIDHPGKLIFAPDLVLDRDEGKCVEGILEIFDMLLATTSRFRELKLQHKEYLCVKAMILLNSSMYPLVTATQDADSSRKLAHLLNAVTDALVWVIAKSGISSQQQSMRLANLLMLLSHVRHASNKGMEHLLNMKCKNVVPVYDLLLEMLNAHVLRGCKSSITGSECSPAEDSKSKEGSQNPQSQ
Put plainly: Competition binding assay, 3H-Estradiol, ER beta. The following applies: IC50 converted to Ki using Cheng-Prusoff equation; read-out: Binding ER b Ki. The protocol:
as §1

Assay [1] deals with MCF-7 breast adenocarcinoma cells. Nature of the assay: MCF-7 proliferation assay (14C-thymidine), antagonist mode. It counts as cell-based. The protocol:
MCF-7 breast adenocarcinoma cells (ATCC HTB 22) are maintained in MEM (minimal essential medium, phenol red-free, Gibco BRL) supplemented with 10% fetal bovine serum (FBS) (V/V), L-glutamine (2 mM), sodium pyruvate (1 mM), HEPES ((N-[2-hydroxyethyl]piperazine-N′-[2-ethanesulfonic acid]10 mM}, non-essential amino acids (0.1 mM) and Penicillin Streptomycin(IX). Seven days prior to assay, MCF-7 cells are switched to assay media which is the same as maintenance medium except supplemented with 10% dextran-coated charcoal-stripped fetal bovine serum (DCC-FBS) assay medium in place of 10% FBS. MCF-7 cells are removed from flasks using 10× Trypsin EDTA (phenol red free, Gibco BRL) and diluted to 1× in (Ca++/Mg++ free HBSS (phenol red-free). Cells are adjusted to 80,000 cells/ml in assay medium. […] For each of the agonist plates, a basal level (media), and a maximum stimulated level (with 1 μM E2) is determined. For each of the antagonist plates, a basal level (media) and a E2 (10 pM) alone control is determined. […] The plates are incubated overnight in the same incubator and then counted on the Wallac Microbeta counter. […] For the agonist mode, an EC50 and percent of maximum E2 stimulation and concentration of maximum stimulation is calculated. […]

Assay [2] has as its system Ishikawa human endometrial tumor cells. Nature of the assay: Ishikawa cell alkaline phosphatase (PNPP) assay, antagonist mode. It counts as cell-based. From the text:
Ishikawa human endometrial tumor cells are maintained in MEM (minimum essential medium, with Earle's salts and L-Glutamine, Gibco BRL, Gaithersburg, Md.), supplemented with 10% fetal bovine serum (FBS) (V/V), (Gibco BRL). One day prior to assay, growth media is changed to assay medium, DMEM/F-12 (3:1) (Dulbecco's Modified Eagle Medium: Nutrient Mixture F-12, 3:1 Mixture, phenol red-free, Gibco BRL) supplemented with 5% dextran coated charcoal stripped fetal bovine serum (DCC-FBS) (Hyclone, Logen, UT), L-Glutamine (2 mM), MEM sodium pyruvate (1 mM), HEPES (N-[2-hydroxyethyl]piperazine-N′-[2-ethanesulfonic acid]2 mM) all from Gibco BRL). After an overnight incubation, ishikawa cells are rinsed with Dulbecco's Phosphate Buffered Saline (1×) (D-PBS) without Ca^+2 and Mg^+2 (Gibco BRL), and trypsinized by a 3 minute incubation with 0.25% Trypsin/EDTA, phenol red-free (Gibco BRL). Cells are resuspended in assay medium and adjusted to 250,000 cells/ml. […] After a 20-minute incubation, plates are read on a spectophotometer at 405 nm. […] For the agonist mode, a % efficacy for each compound is calculated versus the response to Tamoxifen. For the antagonist mode, a % efficacy for each compound is calculated versus E2 (1 nM) alone.

Usually Ki stands for the dissociation constant of the complex between target and ligand, obtained from inhibition or displacement. On to `COc1ccc(-c2ccc3cc(O)ccc3c2Oc2ccc(OCCCC[S+]([O-])CCCC(F)(F)C(F)(F)F)cc2)cc1` (stereo not drawn) [Example 2, 6-(4-Methoxy-phenyl)-5-{4-[4-(4,4,5,5,5-pentafluoro-pentane-sulfinyl)-butoxy]-phenoxy}-naphthalen-2-ol], for which the Ki on ERAlpha receptor is 0.3 nM; at ERbeta receptor it was 0.2 nM. Besides, the “MCF-7 Antag. % Eff.” value in assay [1] (10 pM E2, % inhibition @ 1 μM) came out at 86%. For the same compound, the IC50 in assay [1] (Homo sapiens, MCF7, 10 pM E2, read-out: MCF-7 IC 50) came out at 2.5 nM; in assay [2] (Homo sapiens, Ishikawa, E2 1 nM, read-out: Ishikawa IC 50), 6.8 nM. Also, the “Ishikawa Antag. % Eff.” value in assay [2] (% efficacy versus E2 (1 nM) alone) is on record as 100%.
